Test results taken from patent US20250223268A1, “4-Methylsulfonylbenzamide Compound, Preparation Method, Herbicidal Composition And Use” (Jiangsu Flag Chemical Industry Co., Ltd., priority 2022, published 2025).

Columns and labels:
Type in all cases: in vivo
Digitaria sanguinalis [1] = test: Greenhouse herbicidal activity and crop safety comparison (Test Example 2)
How it was run: (§1)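 Fresh weight inhibition, banded into grades A to E (E <20%), was rated 14-21 days after foliar spraying of 3-6 leaf plants, or 14-30 days after a soil spray applied 24 h post-sowing.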

Zea mays = test: as above
How it was run: as §1

Cyperus iria = test: Greenhouse herbicidal activity assay, post-emergence; conditions: Post-emergence test, rate 150 g a.i./hm^2, grade by fresh weight inhibition rate; for pest or weed control at 150 g/ha: Cyperus iria, read-out: Control efficacy grade, Cyperus iria
How it was run: (§2)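 Scores reflect fresh weight inhibition assessed 14-21 days after treatment, with grade A meaning ≥80% to 100% and grade E meaning <20%. Plants, raised in nutrient-soil pots inside a growth chamber, were sprayed on the foliage at the 3-6 leaf stage.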

Digitaria sanguinalis [2] = test: as above; conditions: Post-emergence test, rate 150 g a.i./hm^2, grade by fresh weight inhibition rate; for pest or weed control at 150 g/ha: Digitaria sanguinalis, read-out: Control efficacy grade, Digitaria sanguinalis
How it was run: as §2

Echinochloa crusgalli [3] = test: as above; conditions: Post-emergence test, rate 150 g a.i./hm^2, grade by fresh weight inhibition rate; for pest or weed control at 150 g/ha: Echinochloa crus-galli, read-out: Control efficacy grade, Echinochloa crusgalli
How it was run: as §2

Eclipta prostrata = test: as above; conditions: Post-emergence test, rate 150 g a.i./hm^2, grade by fresh weight inhibition rate; for pest or weed control at 150 g/ha: Eclipta prostrata, read-out: Control efficacy grade, Eclipta prostrata
How it was run: as §2

Leptochloa chinensis [4] = test: as above; conditions: Post-emergence test, rate 150 g a.i./hm^2, grade by fresh weight inhibition rate; for pest or weed control at 150 g/ha: Dinebra chinensis, read-out: Control efficacy grade, Leptochloa chinensis
How it was run: as §2

Echinochloa crusgalli [5] = test: Greenhouse herbicidal activity and crop safety comparison (Test Example 2); conditions: for inhibition at 75 g/ha / inhibition at 150 g/ha: Echinochloa crus-galli, read-out: Echinochloa crusgalli, control efficacy grading (fresh weight inhibition rate)
How it was run: as §1

[6] = tested on: Oryza sativa subsp. indica; test: as above
How it was run: as §1

[7] = tested on: Oryza sativa subsp. japonica; test: as above
How it was run: as §1

Leptochloa chinensis [8] = test: as above; conditions: Dinebra chinensis; Rate 150 g/ha; read-out: Leptochloa chinensis, control efficacy grading (fresh weight inhibition rate)
How it was run: as §1

[9] = Digitaria sanguinalis, Rate 75 g/ha, read-out: Digitaria sanguinalis, control efficacy grading (fresh weight inhibition rate)
[10] = Digitaria sanguinalis, Rate 150 g/ha, read-out: Digitaria sanguinalis, control efficacy grading (fresh weight inhibition rate)

SMILES	Digitaria sanguinalis, control efficacy grading (fresh weight inhibition rate) (Digitaria sanguinalis [1]; Rate 150 g/ha)	Zea mays, grading of fresh weight inhibition rate (crop safety) (Zea mays; Rate 18.75 g/ha)	Zea mays, grading of fresh weight inhibition rate (crop safety) (Zea mays; Rate 75 g/ha)	Zea mays, grading of fresh weight inhibition rate (crop safety) (Zea mays; Rate 150 g/ha)	Control efficacy grade, Cyperus iria (Cyperus iria)	Control efficacy grade, Digitaria sanguinalis (Digitaria sanguinalis [2])	Control efficacy grade, Echinochloa crusgalli (Echinochloa crusgalli [3])	Control efficacy grade, Eclipta prostrata (Eclipta prostrata)	inhibition at 75 g/ha (Digitaria sanguinalis [1]; [9])	inhibition at 150 g/ha (Digitaria sanguinalis [1]; [10])	inhibition at 150 g/ha (Echinochloa crusgalli [5]; Rate 150 g/ha)	Oryza sativa subsp. indica, grading of fresh weight inhibition rate (crop safety) ([6]; Rate 75 g/ha)	Oryza sativa subsp. indica, grading of fresh weight inhibition rate (crop safety) ([6]; Rate 150 g/ha)	Oryza sativa subsp. japonica, grading of fresh weight inhibition rate (crop safety) ([7]; Rate 75 g/ha)	Oryza sativa subsp. japonica, grading of fresh weight inhibition rate (crop safety) ([7]; Rate 150 g/ha)	pest or weed control at 150 g/ha (Cyperus iria)	pest or weed control at 150 g/ha (Digitaria sanguinalis [2])	pest or weed control at 150 g/ha (Echinochloa crusgalli [3])	pest or weed control at 150 g/ha (Eclipta prostrata)	pest or weed control at 150 g/ha (Leptochloa chinensis [4])	further results
CCC[S+]([O-])c1c(S(C)(=O)=O)ccc(C(=O)Nc2nonc2C)c1Cl (single isomer, unassigned) [Compound 4-3]	A (Fresh weight inhibition rate≥80% to 100%)	E (Fresh weight inhibition rate<20%)	E (Fresh weight inhibition rate<20%)	E (Fresh weight inhibition rate<20%)	A (Fresh weight inhibition rate≥80% to 100%)	A (Fresh weight inhibition rate≥80% to 100%)	A (Fresh weight inhibition rate≥80% to 100%)	A (Fresh weight inhibition rate≥80% to 100%)	–	–	–	–	–	–	–	–	–	–	–	–	Digitaria sanguinalis, control efficacy grading (fresh weight inhibition rate) (Digitaria sanguinalis [1]; Rate 18.75 g/ha): A (Fresh weight inhibition rate≥80% to 100%); Digitaria sanguinalis, control efficacy grading (fresh weight inhibition rate) (Digitaria sanguinalis [1]; Rate 75 g/ha): A (Fresh weight inhibition rate≥80% to 100%); Control efficacy grade, Leptochloa chinensis (Leptochloa chinensis [4]): A (Fresh weight inhibition rate≥80% to 100%)
Cn1ncnc1NC(=O)c1ccc(S(C)(=O)=O)c(S(C)(=O)=O)c1Cl [CK3, reference compound]	–	–	E (Fresh weight inhibition rate<20%)	D (Fresh weight inhibition rate≥20% to <40%)	–	–	–	–	< 20%	20 to 40%	80 to 100%	D (Fresh weight inhibition rate≥20% to <40%)	B (Fresh weight inhibition rate≥260% to <80%)	D (Fresh weight inhibition rate≥20% to <40%)	C (Fresh weight inhibition rate≥40% to <60%)	–	–	–	–	–	inhibition at 75 g/ha (Echinochloa crusgalli [5]; Rate 75 g/ha): 40 to 60%
CCC[S+]([O-])c1c(S(C)(=O)=O)ccc(C(=O)Nc2nonc2C)c1Cl (single isomer, unassigned) [Compound 4-4]	A (Fresh weight inhibition rate≥80% to 100%)	E (Fresh weight inhibition rate<20%)	E (Fresh weight inhibition rate<20%)	E (Fresh weight inhibition rate<20%)	A (Fresh weight inhibition rate≥80% to 100%)	A (Fresh weight inhibition rate≥80% to 100%)	A (Fresh weight inhibition rate≥80% to 100%)	A (Fresh weight inhibition rate≥80% to 100%)	–	–	–	–	–	–	–	–	–	–	–	–	Digitaria sanguinalis, control efficacy grading (fresh weight inhibition rate) (Digitaria sanguinalis [1]; Rate 75 g/ha): A (Fresh weight inhibition rate≥80% to 100%); Control efficacy grade, Leptochloa chinensis (Leptochloa chinensis [4]): A (Fresh weight inhibition rate≥80% to 100%)
CCS(=O)(=O)c1c(S(C)(=O)=O)ccc(C(=O)Nc2ncnn2C)c1Cl [CK4, reference compound]	–	–	E (Fresh weight inhibition rate<20%)	D (Fresh weight inhibition rate≥20% to <40%)	–	–	–	–	20 to 40%	40 to 60%	–	C (Fresh weight inhibition rate≥40% to <60%)	B (Fresh weight inhibition rate≥260% to <80%)	C (Fresh weight inhibition rate≥40% to <60%)	C (Fresh weight inhibition rate≥40% to <60%)	–	–	–	–	–	inhibition at 75 g/ha (Echinochloa crusgalli [5]; Rate 75 g/ha): 40 to 60%
Cc1nonc1NC(=O)c1ccc(S(C)(=O)=O)c([S+](C)[O-])c1Cl (stereo not drawn) [CK6, reference compound]	–	E (Fresh weight inhibition rate<20%)	D (Fresh weight inhibition rate≥20% to <40%)	D (Fresh weight inhibition rate≥20% to <40%)	–	–	–	–	40 to 60%	40 to 60%	–	–	–	–	–	–	–	–	–	–	inhibition at 18.75 g/ha (Digitaria sanguinalis [1]; Digitaria sanguinalis, Rate 18.75 g/ha, read-out: Digitaria sanguinalis, control efficacy grading (fresh weight inhibition rate)): < 20%
CCC[S+]([O-])c1c(S(C)(=O)=O)ccc(C(=O)Nc2nonc2C)c1Cl (racemic) [Compound 4-2, 2-chloro-N-(4-methyl-1,2,5-oxadiazol-3-yl)-4-(methylsulfonyl)-3-(propylsulfinyl)benzamide]	–	E (Fresh weight inhibition rate<20%)	E (Fresh weight inhibition rate<20%)	E (Fresh weight inhibition rate<20%)	–	–	–	–	80 to 100%	80 to 100%	–	–	–	–	–	80 to 100%	80 to 100%	80 to 100%	80 to 100%	80 to 100%	–
CCc1nnc(NC(=O)c2ccc(S(C)(=O)=O)c(S(=O)(=O)C(C)C)c2Cl)o1 [Compound 3-392, 2-chloro-N-(5-ethyl-1,3,4-oxadiazol-2-yl)-3-(isopropylsulfonyl)-4-(methylsulfonyl)benzamide]	–	–	–	–	–	–	–	–	–	–	80 to 100%	–	E (Fresh weight inhibition rate<20%)	–	E (Fresh weight inhibition rate<20%)	80 to 100%	80 to 100%	80 to 100%	80 to 100%	80 to 100%	inhibition at 150 g/ha (Leptochloa chinensis [8]): 80 to 100%
CCCS(=O)(=O)c1c(S(C)(=O)=O)ccc(C(=O)Nc2nnc(C(C)C)o2)c1Cl [Compound 3-503, 2-chloro-N-(5-isopropyl-1,3,4-oxadiazol-2-yl)-4-(methylsulfonyl)-3-(propylsulfonyl)benzamide]	–	–	–	–	–	–	–	–	–	–	80 to 100%	–	E (Fresh weight inhibition rate<20%)	–	E (Fresh weight inhibition rate<20%)	80 to 100%	80 to 100%	80 to 100%	80 to 100%	80 to 100%	inhibition at 150 g/ha (Leptochloa chinensis [8]): 80 to 100%
Cn1ncnc1NC(=O)c1ccc(S(C)(=O)=O)c(S(=O)(=O)C2CCC2)c1Cl [Compound 2-41]	A (Fresh weight inhibition rate≥80% to 100%)	–	E (Fresh weight inhibition rate<20%)	E (Fresh weight inhibition rate<20%)	A (Fresh weight inhibition rate≥80% to 100%)	A (Fresh weight inhibition rate≥80% to 100%)	A (Fresh weight inhibition rate≥80% to 100%)	A (Fresh weight inhibition rate≥80% to 100%)	–	–	–	E (Fresh weight inhibition rate<20%)	E (Fresh weight inhibition rate<20%)	E (Fresh weight inhibition rate<20%)	E (Fresh weight inhibition rate<20%)	–	–	–	–	–	Echinochloa crusgalli, control efficacy grading (fresh weight inhibition rate) (Echinochloa crusgalli [5]; Rate 75 g/ha): A (Fresh weight inhibition rate≥80% to 100%); Echinochloa crusgalli, control efficacy grading (fresh weight inhibition rate) (Echinochloa crusgalli [5]; Rate 150 g/ha): A (Fresh weight inhibition rate≥80% to 100%)
